Like-named read-outs stand apart in the source and are kept apart here.
Tested on: Nav1.8-positive nociceptors
Format: in vivo, mouse
[1] = input transcriptome of whole DRG, day 10

## CC(=O)O[C@H]1C(=O)[C@@]2(C)[C@H]([C@H](OC(=O)c3ccccc3)[C@]3(O)C[C@H](OC(=O)[C@H](O)[C@@H](NC(=O)c4ccccc4)c4ccccc4)C(C)=C1C3(C)C)[C@]1(OC(C)=O)CO[C@@H]1C[C@@H]2O [paclitaxel]
Nav1.8-TRAP after paclitaxel
  Log2FC 0st4: 1.718
  Log2FC 2010107E04Rik: 2.12
  Log2FC 2310039H08Rik: 5.143
  Log2FC 2700094K13R1k: 3.302
  Log2FC 4833439L19R1k: 2.132
  Log2FC Aars2: 2.418
  Log2FC Acadvl: 1.927
  Log2FC Acap3: 3.498
  Log2FC Acp1: 1.942
  Log2FC Adamts8: 3.561
  Log2FC Adcy6: 2.711
  Log2FC Alkbh3: 6.476
  Log2FC Amacr: 2.955
  Log2FC Amd1: 3.371
  Log2FC Amer2: 2.706
  Log2FC Anapc13: 3.575
  Log2FC AngptI2: 2.189
  Log2FC Ankrd13b: 2.385
  Log2FC Anxa5: 1.873
  Log2FC Ap2m1: 1.802
  Log2FC Apip: 3.746
  Log2FC Arl3: 1.891
  Log2FC Arl6: 2.816
  Log2FC Arpc1b: 2.309
  Log2FC Asna1: 2.939
  Log2FC Atg4c: 2.347
  Log2FC Atp5c1: 2.208
  Log2FC Atp5j2: 1.988
  Log2FC Avpi1: 2.241
  Log2FC Bcl3: 1.89
  Log2FC Bloc1s1: 1.944
  Log2FC Btbd2: 1.76
  Log2FC C77080: 2.169
  Log2FC Calca: 1.643
  Log2FC Camk1: 1.856
  Log2FC Caml: 1.865
  Log2FC Card19: 1.753
  Log2FC Casp6: 5.72
  Log2FC Ccm2: 1.643
  Log2FC Cct3: 1.638
  Log2FC Cd1d1: 3.345
  Log2FC Cdc42ep3: 3.249
  Log2FC Cdpf1: 1.815
  Log2FC Cenpf: 2.902
  Log2FC Cfap206: 3.055
  Log2FC Cfd: 2.201
  Log2FC Chchd10: 3.153
  Log2FC Chp1: 1.916
  Log2FC Cisd2: 2.375
  Log2FC Cln5: 3.447
  Log2FC Cnih4: 1.926
  Log2FC Cnrip1: 2.136
  Log2FC Cntfr: 2.495
  Log2FC Coq3: 4.105
  Log2FC Cox6b1: 1.818
  Log2FC Cox7a2: 2.17
  Log2FC Cox7b: 2.566
  Log2FC Cox18: 2.806
  Log2FC Crlf2: 3.214
  Log2FC DIg2: 2.734
  Log2FC Dad1: 2.457
  Log2FC Ddt: 1.823
  Log2FC Ddx59: 3.577
  Log2FC Dhrs1: 1.833
  Log2FC Dnajb1: 1.888
  Log2FC Dnajc5: 1.672
  Log2FC Dnal4: 3.156
  Log2FC Dolk: 3.023
  Log2FC Dpm3: 2.927
  Log2FC Dzank1: 2.226
  Log2FC Edfl: 2.362
  Log2FC Efccl: 3.201
  Log2FC Eif3l: 1.622
  Log2FC Eif4a3: 2.269
  Log2FC Elk4: 1.928
  Log2FC Emd: 2.135
  Log2FC Endov: 2.652
  Log2FC Esd: 1.658
  Log2FC Esyt1: 3.657
  Log2FC Fabp7: 2.365
  Log2FC Fads3: 2.619
  Log2FC Fam89a: 3.216
  Log2FC Fam132a: 3.453
  Log2FC Fam172a: 2.094
  Log2FC Fam189b: 1.8
  Log2FC Fbxo2: 2.965
  Log2FC Fkbp1b: 1.714
  Log2FC Fm43b: 4.132
  Log2FC Fsd1: 3.044
  Log2FC Fxyd2: 1.653
  Log2FC Gdf1: 2.419
  Log2FC Gla: 1.793
  Log2FC Gm20721: 2.093
  Log2FC Gmppa: 2.033
  Log2FC Gpr75: 3.81
  Log2FC Gstm1: 3.155
  Log2FC H2-T23: 3.904
  Log2FC H2afj: 2.76
  Log2FC H2afz: 1.717
  Log2FC Hagh: 3.067
  Log2FC Hhatl: 3.915
  Log2FC Hist3h2ba: 2.223
  Log2FC Hspa8: 1.666
  Log2FC Idh3b: 1.905
  Log2FC Ift122: 2.378
  Log2FC Igtp: 2.41
  Log2FC Kcnip2: 2.308
  Log2FC Kcnip4: 1.68
  Log2FC Krt28: 5.481
  Log2FC L3mbt12: 1.691
  Log2FC Lamtor5: 1.975
  Log2FC Lcmt1: 1.712
  Log2FC Lingo2: 2.247
  Log2FC Litaf: 2.888
  Log2FC Lrrc55: 5.433
  Log2FC Lxn: 2.119
  Log2FC Lyrm2: 2.832
  Log2FC M pl36: 2.805
  Log2FC Mok: 7.257
  Log2FC Mpp4: 3.465
  Log2FC Mpv17: 1.73
  Log2FC Mrpl18: 1.683
  Log2FC Mrpl34: 2.378
  Log2FC Mrpl42: 1.785
  Log2FC Mrps36: 2.585
  Log2FC Mtor: 1.973
  Log2FC Mxd3: 1.905
  Log2FC Ndufa4: 2.041
  Log2FC Ndufa8: 1.699
  Log2FC Ndufaf7: 2.358
  Log2FC Ndufs8: 2.837
  Log2FC Nedd9: 3.023
  Log2FC Ngfr: 1.805
  Log2FC Nipsna p3b: 2.057
  Log2FC Nme2: 3.66
  Log2FC Ntrk1: 2.2
  Log2FC Omg: 2.194
  Log2FC PIpp1: 2.874
  Log2FC Pafah2: 2.283
  Log2FC Pcbd2: 2.687
  Log2FC Pcdhb9: 2.519
  Log2FC Pex11b: 3.628
  Log2FC Pgrmc2: 1.76
  Log2FC Phpt1: 1.814
  Log2FC Pnrc2: 1.668
  Log2FC Polr1c: 2.731
  Log2FC Polr2j: 3.518
  Log2FC Ppdpf: 2.038
  Log2FC Ppp1ca: 2.094
  Log2FC Praf2: 2.335
  Log2FC Prdx5: 2.174
  Log2FC Prg4: 3.247
  Log2FC Prkrir: 2.096
  Log2FC Prkx: 2.201
  Log2FC Prm1: 1.732
  Log2FC Psma2: 2.07
  Log2FC Ptdss1: 1.681
  Log2FC Ptp4a3: 2.248
  Log2FC Ptprf: 1.742
  Log2FC Pxdc1: 3.578
  Log2FC Rad9a: 1.786
  Log2FC Rbc1: 1.841
  Log2FC Rcn3: 2.085
  Log2FC Rd54l: 4.965
  Log2FC Rft1: 3.183
  Log2FC Rho: 5.352
  Log2FC Rnase4: 2.356
  Log2FC Rnh1: 2.827
  Log2FC Romo1: 2.002
  Log2FC Rpl10a: 2.764
  Log2FC Rpl23a: 1.728
  Log2FC Rpl37: 2.314
  Log2FC Rpl39: 2.279
  Log2FC Rprm: 1.703
  Log2FC Rps2: 2.442
  Log2FC Rps29: 2.994
  Log2FC Rraga: 1.845
  Log2FC Rtn4rl1: 2.407
  Log2FC Rwdd1: 2.511
  Log2FC Sag: 1.948
  Log2FC Scpep1: 2.923
  Log2FC Sdhb: 3.236
  Log2FC Sec14I1: 2.129
  Log2FC Serp2: 2.805
  Log2FC Serpina3n: 2.549
  Log2FC Serping1: 3.002
  Log2FC Shisa5: 2.137
  Log2FC Slc3a2: 2.841
  Log2FC Slc6a15: 1.979
  Log2FC Slc25a3: 2.641
  Log2FC Slc30a6: 2.809
  Log2FC Slc48a1: 1.977
  Log2FC Smdt1: 2.016
  Log2FC Smug1: 4.754
  Log2FC Snrpg: 1.657
  Log2FC Soat2: 4.066
  Log2FC Sod1: 1.77
  Log2FC Sorbs1: 2.942
  Log2FC Spink10: 3.169
  Log2FC Synb: 3.1
  Log2FC Syngr3: 1.701
  Log2FC Tagln3: 2.101
  Log2FC Tdrp: 2.335
  Log2FC Tgm2: 2.739
  Log2FC Thoc7: 2.07
  Log2FC Timm8b: 2.815
  Log2FC Timm9: 1.838
  Log2FC Tmem9b: 1.818
  Log2FC Tmem14c: 1.657
  Log2FC Tmem53: 2.851
  Log2FC Tmem106b: 1.891
  Log2FC Tmem120b: 3.033
  Log2FC Tmem126a: 2.744
  Log2FC Tmem129: 2.655
  Log2FC Tnfaip8l3: 4.38
  Log2FC Tonsl: 1.762
  Log2FC Tpgs2: 2.076
  Log2FC Tram1: 2.174
  Log2FC Trap1: 2.447
  Log2FC Trim11: 2.395
  Log2FC Trpv1: 1.657
  Log2FC Tspan17: 2.337
  Log2FC Tubb4b: 2.111
  Log2FC Tyro3: 2.927
  Log2FC Ucp1: 3.795
  Log2FC Ufsp2: 1.927
  Log2FC Uqcrc2: 3.514
  Log2FC Uqcrq: 1.825
  Log2FC Use1: 1.748
  Log2FC Usmg5: 1.798
  Log2FC Vezf1: 1.933
  Log2FC Wbp2: 1.689
  Log2FC Wdr35: 2.68
  Log2FC ll15ra: 3.551
  Log2FC mt-Nd1: 1.74
TRAP fraction
  normalized TPM for the Rraga mRNA: 3.6±0.51
TRAP-seq after paclitaxel treatment
  increase in number of normalized reads mapping to the Rraga mRNA: 3.5 fold
TRAP-seq data set
  number of genes down regulated: 222
  number of genes up-regulated: 230
Gene Med6, upregulated in Nav1.8-TRAP after paclitaxel
  Log2FC Med6: 2.473
Gene Mien1, upregulated in Nav1.8-TRAP after paclitaxel
  Log2FC Mien1: 1.847
Gene Mmd, upregulated in Nav1.8-TRAP after paclitaxel
  Log2FC Mmd: 2.026
Gene Mob1a, upregulated in Nav1.8-TRAP after paclitaxel
  Log2FC Mob1a: 2.683
Gene Mob3b, upregulated in Nav1.8-TRAP after paclitaxel
  Log2FC Mob3b: 2.179
Gene Ythdf2, upregulated in Nav1.8-TRAP after paclitaxel
  Log2FC Ythdf2: 1.866
Gene Ywhaq, upregulated in Nav1.8-TRAP after paclitaxel
  Log2FC Ywhaq: 1.837
Gene Zfp386, upregulated in Nav1.8-TRAP after paclitaxel
  Log2FC Zfp386: 3.022
Gene Zfp467, upregulated in Nav1.8-TRAP after paclitaxel
  Log2FC Zfp467: 2.147
Gene Zyx, upregulated in Nav1.8-TRAP after paclitaxel
  Log2FC Zyx: 2.08
Input fraction
  normalized TPM for the Rraga mRNA: 2.04±0.17
[1]
  number of genes down-regulated: 1
  number of genes up-regulated: 4
mouse, in vivo
  Log2FC Stx2: 1.896
